BindingDB's records for doi:10.1016/j.bmcl.2005.04.064 (Semmelweis University, 2005)

The compounds below were run against SRPK1 (Homo sapiens) (assay: In vitro inhibition of SR protein kinase 1 by compound dissolved in 100% DMSO using 5''-[gamma-33P]-triphosphate).
An IC50 of 6130 nM was found for COC(=O)CCc1ccc(-c2nc3cc4ccccc4cc3nc2-c2ccc(CCC(=O)OC)s2)s1 [3-(5-{3-[5-(2-Methoxycarbonyl-ethyl)-thiophen-2-yl]-benzo[g]quinoxalin-2-yl}-thiophen-2-yl)-propionic acid methyl ester] in this work. An IC50 of 16300 nM was found for COc1cc2nc(-c3cccs3)c(-c3cccs3)nc2cc1OC [6,7-Dimethoxy-2,3-di-thiophen-2-yl-quinoxaline] in this work. An IC50 of 820 nM was found for O=C(O)CCCc1ccc(-c2nc3cc4ccccc4cc3nc2-c2ccc(CCCC(=O)O)s2)s1 [4-(5-{3-[5-(3-Carboxy-propyl)-thiophen-2-yl]-benzo[g]quinoxalin-2-yl}-thiophen-2-yl)-butyric acid] in this work. An IC50 of 9610 nM was found for Oc1cc2nc(-c3cccs3)c(-c3cccs3)nc2cc1O [2,3-Di-thiophen-2-yl-quinoxaline-6,7-diol] in this work. An IC50 of 950 nM was found for O=C(O)C1COc2cc3nc(-c4cccs4)c(-c4cccs4)nc3cc2O1 (stereo unspecified) [6,7-Di-thiophen-2-yl-2,3-dihydro-1,4-dioxa-5,8-diaza-anthracene-2-carboxylic acid] in this work. An IC50 of 40 nM was found for O=C(O)c1ccc2cc3nc(-c4cccs4)c(-c4cccs4)nc3cc2c1 [2,3-Di-thiophen-2-yl-benzo[g]quinoxaline-7-carboxylic acid] in this work. An IC50 of 1360 nM was found for c1csc(-c2nc3cc4ccccc4cc3nc2-c2cccs2)c1 [2,3-Di-thiophen-2-yl-benzo[g]quinoxaline] in this work. An IC50 of 11800 nM was found for COC(=O)Cc1csc(-c2nc3cc4ccccc4cc3nc2-c2cc(CC(=O)OC)cs2)c1 [{5-[3-(4-Methoxycarbonylmethyl-thiophen-2-yl)-benzo[g]quinoxalin-2-yl]-thiophen-3-yl}-acetic acid methyl ester] in this work. An IC50 of 870 nM was found for O=C(O)CCc1ccc(-c2nc3cc4ccccc4cc3nc2-c2ccc(CCC(=O)O)s2)s1 [3-(5-{3-[5-(2-Carboxy-ethyl)-thiophen-2-yl]-benzo[g]quinoxalin-2-yl}-thiophen-2-yl)-propionic acid] in this work. An IC50 of 23400 nM was found for c1csc(-c2nc3cc4c(cc3nc2-c2cccs2)OCCO4)c1 [6,7-Di-thiophen-2-yl-2,3-dihydro-1,4-dioxa-5,8-diaza-anthracene] in this work. An IC50 of 1140 nM was found for COc1cc2nc3nc(-c4cccs4)c(-c4cccs4)nc3nc2cc1OC [7,8-Dimethoxy-2,3-di-thiophen-2-yl-pyrazino[2,3-b]quinoxaline] in this work.
